From patent US20170312207A1, “MOISTURIZING AGENT” (SHOWA DENKO K.K., priority 2014, published 2017) come the findings set out here.

In one assay the test system is loricrin gene. Briefly: Promoting expression of CE-forming-related factor: loricrin gene, quantitative real-time PCR. It counts as cell-based, human. The note with it: SVHK cells, 1 μM, 48 hours; standardized to GAPDH; purified water control 1.00. How it is done:
(§1) Loricrin, involucrin, and transglutaminase-1 are known as CE-forming-related factors. Here, effect of an inositol derivative on promoting expression of CE-forming-related factors was examined by using human epidermal cells. Human epidermal cells (SVHK cells) which were established from introduction of SV40 gene into human epidermal cells, were seeded on a plastic petri dish at a seeding density of 10,000 cells/cm^2 and cultured for 24 hours in Dulbecco's Modified Eagle's Medium (DMEM, manufactured by Sigma-Aldrich Co. LLC.) containing 10% fetal bovine serum. […] Next, quantitative real-time PCR was performed using this cDNA as a template, and the expression levels of loricrin gene, involucrin gene, and transglutaminase-1 (TG-1) gene in SVHK cells of each group were quantified, respectively. In addition, the expression level of glyceraldehyde-3-phosphate dehydrogenase (GAPDH) which is a housekeeping gene in which variation is not observed in the expression by adding a compound, as an internal standard gene, was quantified, and based on the expression levels of GAPDH gene in SVHK cells of each group, the expression levels of loricrin gene, involucrin gene, and TG-1 gene were standardized. […]
For orientation: In qPCR the cycle at which signal appears reflects the starting amount.

The subject of a further assay is involucrin gene. As to the kind of experiment: Promoting expression of CE-forming-related factor: involucrin gene, quantitative real-time PCR. Type of assay: cell-based, human. As to conditions: SVHK cells, 1 μM, 48 hours; standardized to GAPDH; purified water control 1.00. How it is done: as §1
Assay [1] deals with transglutaminase-1 (TG-1) gene. Briefly: Promoting expression of CE-forming-related factor: transglutaminase-1 (TG-1) gene, quantitative real-time PCR. It counts as cell-based, human. The note with it: SVHK cells, 1 μM, 48 hours; standardized to GAPDH; purified water control 1.00. How it is done: as §1
For assay [2], the system named is Normal human epidermal keratinocytes (NHEK cell). As to the kind of experiment: Test for evaluating CE-forming ability. It counts as cell-based. As to conditions: NHEK cells, 1.8 mM Ca2+ medium, 1 μM, four days; purified water control 100. As for the experimental part: Normal human epidermal keratinocytes (NHEK cell manufactured by KURABO INDUSTRIES LTD.) were seeded on a 24 well plate at 1×10^5 cells/cm^2 and cultured at 37° C. under 5% CO2 to reach confluence. As a medium of NHEK cells, HuMedia-KG2 (product name, manufactured by KURABO INDUSTRIES LTD.) was used. After that, the medium was replaced to HuMedia-KG2 medium containing 1.8 mM Ca2+, the inositol derivative dissolved in purified water of Example 2 was added to the final concentration of 1 μM, and culturing was further performed for four days. As for a control, in place of the inositol derivative, the same amount of purified water was added to NHEK cells, and the cells were cultured in the same manner as above. In addition, for comparison, myo-inositol dissolved in purified water was added to NHEK cells in place of the inositol derivative, and the cells were cultured in the same manner as above. After four days of culturing, cells of each group were collected, removed of the supernatant, added with 2% sodium dodecyl sulfate (SDS)-20 mM dithiothreitol (DTT), and heated at 100° C. for 15 minutes. Next, the cells were added with 1% acetic acid-50% ethanol, centrifuged (at 15,000 rpm for five minutes), and removed of the supernatant. Next, the cells were added with 10 mM Tris-HCl-1 mM EDTA and observed with a microscope, and an amount of CE formation was counted. […]

The test system of another assay is AQP3 gene. As to the kind of experiment: Promoting effect on AQP3 expression, quantitative real-time PCR. Type of assay: cell-based, human. The note with it: SVHK cells, 1 μM, 48 hours; standardized to GAPDH; purified water control 1.00. As for the experimental part: (§2) Human epidermal cells (SVHK cells) which were established from introduction of SV40 gene into human epidermal cells, were seeded on a plastic petri dish at a seeding density of 10,000 cells/cm^2 and cultured for 24 hours in Dulbecco's Modified Eagle's Medium (DMEM, manufactured by Sigma-Aldrich Co. LLC.) containing 10% fetal bovine serum. Next, to the medium of SVHK cells, the inositol derivatives dissolved in purified water of Examples 1 to 6 and Comparative Example 1 were added to the final concentration of 1 μM, and culturing was further performed for 48 hours. As for a control, in place of the inositol derivative, the same amount of purified water was added to SVHK cells, and the cells were cultured in the same manner as above. […] Next, quantitative real-time PCR was performed using this cDNA as a template, and the expression levels of AQP3 gene in SVHK cells of each group were quantified. In addition, the expression level of glyceraldehyde-3-phosphate dehydrogenase (GAPDH) which is a housekeeping gene in which variation is not observed in the expression by adding a compound, as an internal standard gene, was quantified, and based on the expression levels of GAPDH gene in SVHK cells of each group, the expression levels of AQP3 gene were standardized. […]

The subject of a further assay is SPT1 gene. Briefly: Promoting effect on serine palmitoyltransferase expression: SPT1 gene. As to conditions: SVHK cells, 10 μM, 48 hours; standardized to GAPDH; purified water control 1.00. Type of assay: cell-based, human. How it is done:
(§3) Serine palmitoyltransferase (SPT) is known as a rate-limiting enzyme for ceramides synthesis. Here, effect of an inositol derivative on promoting SPT gene expression was examined by using human epidermal cells. Human epidermal cells (SVHK cells) which were established from introduction of SV40 gene into human epidermal cells, were seeded on a plastic petri dish at a seeding density of 10,000 cells/cm^2 and cultured for 24 hours in Dulbecco's Modified Eagle's Medium (DMEM, manufactured by Sigma-Aldrich Co. LLC.) containing 10% fetal bovine serum. […] Next, quantitative real-time PCR was performed using this cDNA as a template, and the expression levels of SPT gene in SVHK cells of each group were quantified. More specifically, the expression levels of SPT1, SPT2, and SPT3 genes which are subunits of SPT were quantified. In addition, the expression level of glyceraldehyde-3-phosphate dehydrogenase (GAPDH) which is a housekeeping gene in which variation is not observed in the expression by adding a compound, as an internal standard gene, was quantified, and based on the expression levels of GAPDH gene in SVHK cells of each group, the expression levels of SPT1, SPT2, and SPT3 genes were standardized. […]

The subject of a further assay is SPT2 gene. Briefly: Promoting effect on serine palmitoyltransferase expression: SPT2 gene. It counts as cell-based, human. The note with it: SVHK cells, 10 μM, 48 hours; standardized to GAPDH; purified water control 1.00. As for the experimental part: as §3
A further assay deals with SPT3 gene. As to the kind of experiment: Promoting effect on serine palmitoyltransferase expression: SPT3 gene. It counts as cell-based, human. The note with it: SVHK cells, 10 μM, 48 hours; standardized to GAPDH; purified water control 1.00. How it is done: as §3
Another assay relates to filaggrin gene. Briefly: Promoting effect on filaggrin gene expression, quantitative real-time PCR. As to conditions: SVHK cells, 10 μM, 48 hours; standardized to GAPDH; purified water control 1.00. Type of assay: cell-based, human. As for the experimental part:
as §2, with “Effect of an inositol derivative on promoting filaggrin gene expression was examined by using human epidermal cells. Human epidermal” for “Human epidermal”, “concentration of 10 μM, and” for “concentration of 1 μM, and”, “levels of filaggrin gene in” for “levels of AQP3 gene in”, “levels of filaggrin gene were” for “levels of AQP3 gene were”

Turning to `O[C@H]1[C@H](O)[C@@H](O)[C@H](O)[C@@H](O)[C@H]1O` [Myo-inositol, myo-inositol], in the assay with loricrin gene, the “Expression levels of gene (relative value) lorierin” value is listed as 0.39. Moreover, in the assay with involucrin gene, the “Expression levels of gene (relative value) involucrin” value was determined as 2.42. Further, in assay [1], the “Expression levels of gene (relative value) TG-1” value is listed as 1.96. The “Amount of CE formation (relative value)” value in assay [2] stood at 123. For the same compound, the “Expression levels of AQP3 gene (relative value)” value in the assay on AQP3 gene was found to be 0.83. The “Expression levels of gene (relative value) SPT1” value in the assay with SPT1 gene was found to be 2.01. The “Expression levels of gene (relative value) SPT2” value with SPT2 gene turned out to be 2.49. For the same compound, the “Expression levels of gene (relative value) SPT3” value in the assay with SPT3 gene was 1.64. The “Expression levels of filaggrin gene (relative value)” value with filaggrin gene worked out at 5.94.
